# Results: patent US20240350463A1, “SMALL MOLECULE COMPOUNDS” (APERTOR PHARMACEUTICALS, INC., priority 2021, published 2024)
# Legend:
# [1] = system: mTOR activity (phospho-p70S6K); assay: phospho-p70S6K FACS in activated mouse T-cells; assay type: cell-based
# [2] = system: CD8 cells isolated from p14 transgenic mice; assay: CD8 CTV-labelled proliferation assay; assay type: cell-based, mouse; conditions: activated for 72 hours; 10 nM, 100 nM, and 100 μM
# Protocol: The five analogs and rapamycin were assayed for their effect on proliferation and correlation to p70S6K inhibitory activity. […] The proliferation was measured by FACS. The five analogs were tested at varying concentrations (10 nM, 100 nM, and 100 μM), activated for 72 hours with rapamycin and DMSO treated controls.
# CD8 cells were isolated from p14 transgenic mice, then labelled with CTV. The labelled cells then were activated with plate-bound anti-CD3 (5 μg/mL) and soluble anti-CD28 (2 μg/mL), along with rapamycin, rapamycin analog, or DMSO. After activation of 48 hours and 72 hours, the cells were collected to assay the CVT labelling signal using flow cytometry. All rapamycin analogs decrease proliferation in CD8 cells, with varying potency (FIG. 12).
# naïve CD4+ mouse T-cells = assay: expansion of CD62L+ memory T-cells (FACS); assay type: cell-based
# Protocol: RAP23 was further evaluated by treating naïve CD4+ T-cells at multiple concentrations (1 nM to 1 uM) for expansion of CD62L+ memory T-cells. […] These 5 compounds were identified to have reduced immunosuppression (with improved safety) with maximum and durable expansion of memory T-cells.
# conventional T cells = assay: culture of conventional T cells with RAP35; assay type: cell-based
# Treg cells = assay: treatment of Treg cells with expander beads; assay type: cell-based; conditions: 100 nM
# naïve CD4+ mouse T cells = assay: FACS of naïve CD4+ T cells for CD4+CD25+FOXP3+; conditions: 1 uM
# [3] = stability during semi-preparative HPLC; assay type: physicochemical; conditions: approximately one fifth transformed spontaneously to a more nonpolar compound
# Protocol: To accumulate 35-desmethylrapamycin (RAP35) and 35-desmethyl-27-demethoxyrapamycin (RAP35/27) for characterization and bioactivity assays, a 7.2-L scale of fermentation was conducted. 7.2 L fermentation medium was prepared and aliquoted into eighteen 2 L Erlenmeyer flasks 20 mL of the seed culture was inoculated into each 2 L Erlenmeyer flask, which was then capped with 8-layer gauze. The fermentation was conducted at 28° C., 220 rpm for 4 days. To process the culture, the fermentation broth was centrifuged at 9,000 g for 10 min at room temperature, and the cell pellet was collected and combined. After transferring the cells into a 5 L glass beaker, 2 volumes of acetonitrile were added into 1 volume of the cells. The mixture was stirred vigorously using a magnetic stirrer at room temperature for 1 h. The mixing was halted, and the mixture was allowed to settle under gravity for 30 min. The solvent layer was poured into a 5 L Erlenmeyer flask, and another 2 volumes of acetonitrile was added into the cells for extraction. After three times of extraction in total, the solvent layers were combined and concentrated under reduced pressure. […] The absorbance at 278 nm wavelength was monitored. […]
smiles,measurement,setting,value
"CO[C@H]1C[C@@H]2CC[C@@H](C)[C@@](O)(O2)C(=O)C(=O)N2CCCC[C@H]2C(=O)O[C@H]([C@H](C)C[C@@H]2CC[C@@H](O)[C@H](OC)C2)CC(=O)[C@H](C)/C=C(\C)[C@@H](O)[C@@H](OC)C(=O)[C@H](C)CC/C=C/C=C/C=C/1C [RAP23, (3S,6R,7E,9R,10R,12R,15E,17E,19E,21 S,23S,26R,27R,34aS)-9,27-dihydroxy-3-((R)-1-((1S,3R,4R)-4-hydroxy-3-methoxycyclohexyl)propan-2-yl)-10,21-dimethoxy-6,8,12,20,26-pentamethyl-9,10,12,13,14,21,22,23,24,25,26,27,32,33,34,34a-hexadecahydro-3H-23,27-epoxypyrido[2,1-c][1]oxa[4]azacyclohentriacontine-1,5,11,28,29(41H,6H,31H)-pentaone]",inhibition of p70S6 high signal,[1]; even at 1 uM,never fully inhibited
same,proliferation relative to RAP35 and rapamycin,[2],increased proliferation
same,generation of memory versus inhibition of proliferation,naïve CD4+ mouse T-cells,promote potent generation of memory without potently inhibiting proliferation
same,phospho-p70S6K low/CD62L+ high phenotype relative to all doses of rapamycin,naïve CD4+ mouse T-cells; 1 nM to 1 uM,reduced
same,portion of cells with phospho-p70S6K high/CD62L+ high phenotype,naïve CD4+ mouse T-cells; 1 nM to 1 uM,7-10%
"CO[C@H]1C[C@@H]2CC[C@@H](C)[C@@](O)(O2)C(=O)C(=O)N2CCCC[C@H]2C(=O)O[C@H](CC[C@@H]2CC[C@@H](O)[C@H](OC)C2)CC(=O)[C@H](C)/C=C(\C)[C@@H](O)[C@@H](OC)C(=O)[C@H](C)C[C@H](C)/C=C/C=C/C=C/1C [RAP35, (3R,6R,7E,9R,10R,2R,14S,15E,17E,19E,21S,23S,26R,27R,34aS)-9,27-dihydroxy-3-(2-((1S,3R,4R)-4-hydroxy-3-methoxycyclohexyl)ethyl)-10,21-dimethoxy-6,8,12,14,20,26-hexamethyl-9,10,12,13,14,21,22,23,24,25,26,27,32,33,34,34a-hexadecahydro-3H-23,27-epoxypyrido[2,1-c][1]oxa[4]azacyclohentriacontine-1,5,11,28,29(4H,6H,31H)-pentaone]",p70S6 high cells,"[1]; overnight stimulation, therapeutic concentrations (1-200 nM)",significantly reduced
same,CCR7 expression,conventional T cells,increased
same,CD45RO expression,conventional T cells,decreased
same,level of phosphorylation of 4EBP1 and S6,conventional T cells; 100 nM,mTOR pathway was being targeted
same,anti-inflammatory effects,conventional T cells; Cell Proliferation Dye and phenotypic markers,promising anti-inflammatory effects
same,expression of CCR7,Treg cells,reduce
same,expression of CD45RO,Treg cells,reduce
same,expression of CXCR3,Treg cells,reduce
same,phosphorylation of 4EBP1,Treg cells,reduce
same,phosphorylation of S6,Treg cells,reduce
same,effect on differentiation,naïve CD4+ mouse T cells,strong effect
"CO[C@H]1C[C@@H]2CC[C@@H](C)[C@@](O)(O2)C(=O)C(=O)N2CCCC[C@H]2C(=O)O[C@H](CC[C@@H]2CC[C@@H](O)[C@H](OC)C2)CC(=O)[C@H](C)/C=C(\C)[C@@H](O)CC(=O)[C@H](C)C[C@H](C)/C=C/C=C/C=C/1C [RAP35/27A, (3R,6R,7E,9S,12R,14S,5E,17E,19E,21S,23S,26R,27R,34aS)-9,27-dihydroxy-3-(2-((1S,3R,4R)-4-hydroxy-3-methoxycyclohexyl)ethyl)-21-methoxy-6,8,12,14,20,26-hexamethyl-9,10,12,13,14,21,22,23,24,25,26,27,32,33,34,34a-hexadecahydro-3H-23,27-epoxypyrido[2,1-c][1]oxa[4]azacyclohentriacontine-1,5,11,28,29(4H,6H,31H)-pentaone]",stability in the process of semi-preparation,[3],tended to be unstable
